Data set [1] deals with lacticacidaemia. The following applies: known effect of metformin; cited from earlier work.
The conditions of data set [2]: Rat.
For data set [3] the following is noted: Rabbit, i.v.
For data set [4] the following is noted: 920 mg/kg/i.m., dog.
The conditions of data set [5]: pregnant rabbit.
Data set [6] relates to blood lactic acid.
Data set [7] has as its system lacticacidaemia. To be noted: for lacticacidaemia, basal / lacticacidaemia, after 15 minutes / lacticacidaemia, after 10 minutes / lacticacidaemia, immediately after stress: 2300 mg in 250 ml venous infusion. As to the method: All the patients are being treated with insulin and are in a metabolic compensation.
The trials are performed on double-blind conditions. Each patient is subjected to an isometric stress test at 50% of its maximum ability for one minute.
The samples for measuring the lacticacidaemia are taken from the same arm performing the muscular stress.

For data set [8] the following is noted: pregnant rat.
Data set [9] has as its system hyperlacticacidaemia. The experiment in a line: Lacticacidaemia in cyrrhotic patients having hyperlacticacidaemia (double blind). The following applies: venous 2300 mg in 250 ml, 25 cyrrhotic patients.
The conditions of data set [10]: Mouse.
Data set [11] has as its system lacticacidaemia. The following applies: for lactate level: control animals 5.1±0.59 mM/l. The protocol: The resulting lactate levels are 2.9±0.8 mM/l with modality "A" and 1.37±0.01 mM/l with modality "B", respectively.
The control animals show a lacticacidaemia level of 5.1±0.59 mM/l.

The conditions of data set [12]: 400 mg/kg/os, rats, six months.
The conditions of data set [13]: rats.
The test system of data set [14] is homogenized liver and brain. To be noted: in vitro, Warburg apparatus, French Pat. No. 6453 M; cited from earlier work.
Data set [15] deals with maximal aerobic capacity; blood lactate. The experiment in a line: Maximal aerobic capacity and blood lactate at work loads in trained non-athletic individuals.

The structures appear in SMILES notation. Like-named read-outs stand apart in the source and are kept apart here.

For `CN(C)C(=N)N=C(N)N` [metformin], in [1], the lacticacidosis in rat result is listed as “causes lacticacidosis”.

Consider `Cc1ncc(CO)c(CO)c1O.O=C(O)CCC(=O)C(=O)O` [PAK], for which the LD50 in data set [2] (i.m.) is 2329 mg/kg; in data set [2] (i.p.), 1704 mg/kg; in [2] (i.v.), 588 mg/kg; in data set [2] (os), 4800 mg/kg; in [3], 1050 mg/kg; in [10] (i.m.), 2472 mg/kg. Also, the LD50 in data set [10] (i.p.) came to 1590 mg/kg; in data set [10] (i.v.), 496 mg/kg; in data set [10] (os), 5600 mg/kg. Further, the Systemic tolerability result in data set [4], in data set [13] (46 mg/kg/i.v.) and in data set [13] (460 mg/kg/i.m.) was “well tolerated” in each case. The Activity on gestation result in [5] (46 mg/kg/i.m.) was “does not cause any noxious effect in the pregnant female, on the gestation and on the embryo-fetal development”; in [5] (oral 1300 mg/kg), “does not cause any noxious effect in the pregnant female, on the gestation and on the embryo-fetal development”; in [8] (46 mg/kg/i.m.) it was “does not cause any noxious effect in the pregnant female, on the gestation and on the embryo-fetal development”; in data set [8] (oral 1300 mg/kg), “does not cause any noxious effect in the pregnant female, on the gestation and on the embryo-fetal development”. Besides, the “decrease in the formation of blood lactic acid” value in data set [6] (2 g/100 kg of weight/day for 15 days, 5 trotters, trot) is “significant decrease”. In data set [6] (2 g/100 kg/day for 15 days, before treatment 6.04 mg/100 ml), the “basal lacticacidaemia after treatment” value was 3.30 mg/100 ml. For the same compound, the “lacticacidaemia immediately after the stress, after treatment” value in data set [6] (2 g/100 kg/day for 15 days, before treatment 29.41 mg/100 ml) is listed as 15.94 mg/100 ml. For the same compound, the duration of effect entry in data set [7] (analysis of the variance) is “protracted in time”. The “reduction of lacticacidaemia after stress” value in data set [7] (analysis of the variance) is given as “faster with PAK”. Also, the “increase of lacticacidaemia by stress with respect to physiological solution” value in data set [7] (analysis of the variance, p<0.01) was “lower with respect to physiological solution”. Also, the “lacticacidaemia, basal” value in data set [7] (sequence (a) physiological solution/PAK, physiological solution 0.88 ± 0.19) worked out at 0.94 ± 0.20; in [7] (sequence (b) PAK/physiological solution, physiological solution 0.93 ± 0.19) it was 0.88 ± 0.16. The “lacticacidaemia, after 15 minutes” value in data set [7] (sequence (a) physiological solution/PAK, physiological solution 1.54 ± 0.30) is recorded as 1.18 ± 0.30; in [7] (sequence (b) PAK/physiological solution, physiological solution 1.25 ± 0.40) it was 1.11 ± 0.29. Further, the “lacticacidaemia, after 10 minutes” value was 1.60 ± 0.30 in data set [7] (sequence (a) physiological solution/PAK, physiological solution 1.73 ± 0.35) and 1.30 ± 0.33 in [7] (sequence (b) PAK/physiological solution, physiological solution 1.43 ± 0.44). Also, the “lacticacidaemia, immediately after stress” value in data set [7] (sequence (a) physiological solution/PAK, physiological solution 3.12 ± 0.46) is on record as 2.62 ± 0.38; in [7] (sequence (b) PAK/physiological solution, physiological solution 2.08 ± 0.49) it was 2.03 ± 0.47. Also, in [9], the “further increase of hyperlacticacidaemia” value is reported as “prevented its further increase”. The “reduction of hyperlacticacidaemia vs basal values and controls” value in [9] (p<0.01) was “statistically significant (p<0.01) reduction”. Further, in [11] (modality "A" and modality "B", with metformin), the decrease of lacticacidaemia result is listed as “notable decrease of lacticacidaemia”. Moreover, the values for the lactate level in data set [11] (modality "A": PAK 25 mg/h venous infusion contemporaneously with metformin (300 mg/i.d.)) and in [11] (modality "B": PAK 25 mg/h venous infusion three hours after metformin (300 mg/i.d.)) were 2.9±0.8 mM/l and 1.37±0.01 mM/l, respectively. In addition, the Chronic toxicity result in [12] is “does not cause any collateral nor toxic effect in the various organs”. For the same compound, the “oxygen consumption vs α-ketoglutaric acid or pyridoxine alone” value in data set [14] is reported as “markedly higher”. Moreover, in data set [15] (30 mg/kg), the “effect on half time (t 1/2) of La disappearance from blood during recovery” value is recorded as “unaffected”. Moreover, the “increase of maximal aerobic capacity (VO2 max)” value in data set [15] (30 mg/kg of body weight, p<0.005) is given as 6%. Also, in [15] (30 mg/kg, onset and offset of a rectangular work load), the “kinetics of the VO2 on-and-off responses” value was “not affected”. For the same compound, the “ΔLab, peak blood lactate concentration vs control group” value is listed as -1.1 mmol·1^-1 in [15] (30 mg/kg, supermaximal running work load lasting 60 seconds, p<0.05) and below 2.7 mmol·1^-1 in data set [15] (30 mg/kg, supermaximal running work load lasting 132±4 seconds, p<0.01).

The values are drawn from patent publication US4361570A (Istituto Luso Farmaco D'Italia S.p.A., priority 1980, dated 1982).
